Laboratory results from patent US20100081637A1, “Eczema treatment with vitamin D and analogs thereof method, composition and cream” (Innovia Skincare Corp., priority 2008, published 2010).

Key:
[1] = system: phosphate transport; settings: cited from earlier work; for influence of presence or absence of luminal Ca on phosphate transport: vascular perfusion, 65 pM 1,25-dihydroxyvitamin D3 or 6.5 nM 24,25-dihydroxyvitamin D3
[2] = system: atopic dermatitis; experiment: Topical vitamin D cream in eczema / atopic dermatitis patients, case reports (Examples 1-6); settings: for effect of prior treatment on itch / effect of prior treatment on redness: prior treatments of the Example 3 patient, per parent
Source text: Person, diagnosed with atopic dermatitis. […] Prior treatments consisted of:
We apply the cream after bathing, before bedtime, and during the night, when needed for itching. […]
Adult […]. […] A vitamin D (400 IU/g) cream was applied. […]

[3] = system: lesions from atopic dermatitis; settings: five patients; calcipotriol 50 ug/g and maxacalitriol 25 ug/g, ointment; cited from earlier work
[4] = system: pruritus; experiment: Dose response of pruritus scores against vitamin D concentration (the FIGURE); format: in vivo, human; settings: topical application; read from the dose response graph
Source text: The FIGURE is a graph illustrating the dose response experimental data in terms of pruritus scores on the vertical scale and a vitamin D concentration in international units per gram (IU/g) on the horizontal scale, with up to four different timing parameters represented by adjacent differentiated bars for each concentration. Pruritus relief is the fastest observed benefit after topical application of our claimed formulations. The graph below indicates an effective concentration as low as 50 IU/g. This is also an indication of bioavailability of vitamin D and therefore an indication of the lowest effective concentration for the treatment of additional symptoms of eczema.

[5] = system: phosphate metabolism; settings: Cross and Peterlik 1981; cited from earlier work

Structure (SMILES): C=C1/C(=C\C=C2/CCC[C@]3(C)[C@@H]([C@H](C)CCCC(C)(C)O)CC[C@@H]23)C[C@@H](O)C[C@@H]1O [1,25-dihydroxyvitamin D3]
- influence of presence or absence of luminal Ca on phosphate transport [1]: did not influence

Structure (SMILES): C=C1CCC(O)C/C1=C\C=C1\CCCC2(C)C1CCC2C(C)CCC(O)C(C)(C)O (stereo not drawn) [24,25-dihydroxyvitamin D3]
- influence of presence or absence of luminal Ca on phosphate transport [1]: did not influence

Structure (SMILES): C=C1CC[C@H](O)C/C1=C/C=C1\CCC[C@]2(C)[C@@H]([C@H](C)CCCC(C)(C)O)CC[C@@H]12 [25-hydroxyvitamin D3]
- stimulation of phosphate transport relative to the normal concentration (100 nM) ([1]; subnormal concentration (20 nM)): much higher rates
- phosphate transport, luminal Ca present ([1]; vascular perfusion with 100 nM 25-hydroxyvitamin D3): stimulated

Structure (SMILES): CC1(C)O[C@@H]2C[C@H]3[C@@H]4CCC5=CC(=O)C=C[C@]5(C)[C@H]4[C@@H](O)C[C@]3(C)[C@]2(C(=O)CO)O1 [Desonide 0.5%, Desonide]
- effect of prior treatment on itch [2]: gives itch relief
- effect of prior treatment on redness [2]: reduces redness

Structure (SMILES): CC(=O)OCC(=O)[C@@]12OC(C)(C)O[C@@H]1C[C@H]1[C@@H]3C[C@H](F)C4=CC(=O)C=C[C@]4(C)[C@@]3(F)[C@@H](O)C[C@@]12C [Fluocinonide 0.05%, Fluocinonide]
- effectiveness of prior treatment ([2]; prior treatment of the Example 5 patient, self-reported): fairly effective

Structure (SMILES): CCCCC(=O)O[C@]1(C(=O)CO)CC[C@H]2[C@@H]3CCC4=CC(=O)CC[C@]4(C)[C@H]3[C@@H](O)C[C@@]21C [Hydrocort Val 02%]
- effect of prior treatment on itch [2]: did not help
- effect of prior treatment on redness [2]: did not help

Structure (SMILES): Cl.OCCOCCN1CCN(C(c2ccccc2)c2ccc(Cl)cc2)CC1 (stereo not drawn) [Hydroxyz Hcl 10 mg]
- sleepiness under prior treatment ([2]; human, in vivo): made their sleepy
- effect of prior treatment on itch [2]: did not help

Structure (SMILES): C=C1/C(=C\C=C2/CCC[C@]3(C)[C@@H]([C@H](C)/C=C/[C@@H](O)C4CC4)CC[C@@H]23)C[C@@H](O)C[C@@H]1O [calcipotriol]
- effect on lesions from atopic dermatitis [3]: improvement of lesions

Structure (SMILES): C=C1/C(=C\C=C2/CCC[C@]3(C)[C@@H]([C@H](C)OCCC(C)(C)O)CC[C@@H]23)C[C@@H](O)C[C@@H]1O [maxacalitriol]
- effect on lesions from atopic dermatitis [3]: improvement of lesions

Structure (SMILES): C=C1CC[C@H](O)C/C1=C/C=C1\CCC[C@]2(C)[C@@H]([C@H](C)CCCC(C)C)CC[C@@H]12 [vitamin D, cholecalciferol]
- lowest effective concentration for pruritus relief [4]: 50 IU/g
- activity with respect to phosphate metabolism [5]: active
